Some test systems named below: ACHN renal; DU-145 prostate; HT29 colon; MOLT-4 leukemia; NCI-H522 lung; OVCAR-5 ovarian; PC-3 prostate; SK-MEL-5 melanoma; SK-OV-3 ovarian; UO-31 renal.
Holding throughout (test): NCI anticancer screen, dose series, 48 h

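Compound exposure: 48 hours, 5 concentrations, 96-well plates. GI50 is the concentration that inhibits growth by half. TGI denotes the concentration required for complete inhibition of growth.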 Bounds are passed on as bounds.

As for `O=C1C=CC(=O)c2c1ncc1c2nc2sccn21`, the GI50 with ACHN renal is 21.7 µM; in the experiment with DU-145 prostate it was 12.8 µM; in the experiment on HT29 colon it was 37.6 µM; in the experiment with MOLT-4 leukemia it was 3.57 µM; in the experiment with NCI-H522 lung, 16 µM; in the experiment with OVCAR-5 ovarian it was 19.8 µM. The GI50 in the experiment on PC-3 prostate is 15.2 µM; with SK-MEL-5 melanoma, 16.9 µM; in the experiment on SK-OV-3 ovarian, 98.3 µM; in the experiment with UO-31 renal, 13.8 µM. Also, the TGI is 39.6 µM in the experiment with ACHN renal; 40 µM with DU-145 prostate; above 100 µM in the experiment on HT29 colon; above 100 µM with MOLT-4 leukemia; 61.2 µM with NCI-H522 lung; 40.1 µM with OVCAR-5 ovarian. Besides, the TGI in the experiment with PC-3 prostate was 30.6 µM; in the experiment with SK-MEL-5 melanoma, 37.3 µM; in the experiment with SK-OV-3 ovarian, above 100 µM; with UO-31 renal, 72.3 µM.

As for `CN(C)CCNC(=O)c1nc([N+](=O)[O-])cn1C`, the TGI in the experiment with ACHN renal, in the experiment with DU-145 prostate, in the experiment on HT29 colon, with MOLT-4 leukemia, in the experiment on NCI-H522 lung and in the experiment with OVCAR-5 ovarian was above 100 µM each time. Further, the TGI in the experiment on PC-3 prostate, with SK-MEL-5 melanoma, with SK-OV-3 ovarian and in the experiment with UO-31 renal was above 100 µM in each case.

Source of the values: PubChem BioAssay (NCI).
